# Marks after values point to notes of the source that are not given here.
# What was measured:
# Format in all cases: in vivo
# [1] = system: Kunming mice; assay: Influence on autonomic activity of normal mice (ZIL-2 mice autonomic activity meter, counts within 10 min); conditions: intragastric, x ± s, n = 10; for Times of activities in 1 h after drug administration/10 min: 1 h after administration; for Times of activities in 2 h after drug administration/10 min: 2 h after administration; for Times of activities in 24 h after drug administration/10 min: 24 h after administration
# Description: (§1) 1.1 Animals for experiments: Kunming mice, weighting 18.9˜22.2 g for females, and 20.2˜23.0 g for males, licensed under SCXK-(Ji) 2007-0003, and provided by The experimental animal centre, Jilin University.
# (§2) 1.2 Chemicals for experiments: The flavone derivatives provided in Examples 1-41 and the flavanone derivatives provided in Examples 42-71 are all formulated with 0.5% sodium carboxymethyl cellulose as solutions with required concentrations.
# (§3) 1.3 Grouping of animals: 6420 animals are employed in the entire experiments and 2140 of the animals are randomly divided into 214 groups by gender, and the […] include: control group, low dosage group for each experimental drugs (25 mg/kg), medium dosage group for each experimental drugs (50 mg/kg), and high dosage group for each experimental drugs (100 mg/kg). Each group has 10 animals and either female or male constitutes half of the group. The groups are used in behavior observation and voluntary action observation. The other 4280 animals are randomly divided into 214 groups by gender respectively (the grouping way is the same with that described above). Each group has 20 animals and either female or male constitutes half of the group. In each group, 10 animals are used in hypnosis experimentations with pentobarbital sodium doses below the threshold, and the other 10 animals are used hypnosis experimentations with pentobarbital sodium doses at the threshold.
# 1.4 Experimental instrument and agents: ZIL-2 mice autonomic activity meter, production of Institute of Materia Medica of Chinese Academy of Medical Sciences; pentobarbital sodium, Lot: 100808, 25 g/bottle, Beijing Chemical Reagent Company equipment imported from Germany.
# 1.5.2 Influence on Autonomic Activity of Normal Mice
# After observing the general behavior, in 1 h, 2 h and 24 h after drug administration, respectively, ZIL-2 mice autonomic activity meter is put respectively. Number of autonomic activities of each group of mice is measured within 10 min. Results among groups are compared.
# (§4) Number of autonomic activities is detected by leneve Test for homogeneity of variance. If the homogeneity of variance is good (P>0.05), statistical analysis is performed with ANOVA. If ANOVA have statistical significance (P≦0.05), Dunnett's test for multiple comparisons analysis is performed. Number of animals of sleeping mice is applied of ANOVA. Incidence rate of animal asleep is applied of χ2 test. Sleep latency and sleep duration are recorded in min, averaged by group, represented by standard deviation, and undergo statistical analysis using ANOVA.
# [2] = system: Kunming mice; assay: Influence on hypnosis effect with pentobarbital sodium doses at the threshold (50 mg/kg i.p.); conditions: pentobarbital sodium 50 mg/kg i.p. 60 min later, x ± s, n = 10
# Description: as §1, §2, §3
# 1.5.4 Influence on Hypnosis Effect with Mice Pentobarbital Sodium Doses at the Threshold
# (§5) The drug is intragastric administered in mice for single time, 2 animals of each group are given drug per round with the dosing interval of 40 min (±5 min). According to the administration round, in 60 min (±5 min) of each round after the drug administration, the animals were intraperitoneally injected 0.3% sodium pentobarbital 50 mg/kg, respectively. Time to fall asleep (sleep latency) and sleep duration of the animals were recorded within under sleep determination standard of loss of righting reflex more than 1 min.
# as §4
# [3] = system: Kunming mice; assay: Influence on hypnosis effect with pentobarbital sodium doses below the threshold (25 mg/kg i.p.); conditions: pentobarbital sodium 25 mg/kg i.p. 60 min later, sleep observed in 30 min, n = 10
# Description: as §1, §2, §3
# 1.5.3 Influence on Hypnosis Effect with Mice Pentobarbital Sodium Doses Below the Threshold
# as §5, with “25” for “50”, “Sleep condition” for “Time to fall asleep (sleep latency) and sleep duration”, “observed” for “recorded”, “30 min (under” for “under”, “min). After animals undergo loss of righting reflex, number of the animals is recorded, to calculate sleep percentage.” for “min.”
# as §4
# [4] = 25 mg/kg intragastric single dose
# [5] = 50 mg/kg intragastric single dose
# [6] = 100 mg/kg intragastric single dose
# [7] = test drug 25 mg/kg intragastric single dose
# [8] = test drug 50 mg/kg intragastric single dose
# [9] = test drug 100 mg/kg intragastric single dose
Molecule,Times of activities in 1 h after drug administration/10 min ([1]; 25 mg/kg),Times of activities in 2 h after drug administration/10 min ([1]; 25 mg/kg),Times of activities in 24 h after drug administration/10 min ([1]; 25 mg/kg),Times of activities in 1 h after drug administration/10 min ([1]; 50 mg/kg),Times of activities in 2 h after drug administration/10 min ([1]; 50 mg/kg),Times of activities in 24 h after drug administration/10 min ([1]; 50 mg/kg),Times of activities in 1 h after drug administration/10 min ([1]; 100 mg/kg),Times of activities in 2 h after drug administration/10 min ([1]; 100 mg/kg),Times of activities in 24 h after drug administration/10 min ([1]; 100 mg/kg),"duration of sleep [2, 4] [min]","time to sleep [2, 4] [min]","duration of sleep [2, 5] [min]","time to sleep [2, 5] [min]","duration of sleep [2, 6] [min]","time to sleep [2, 6] [min]","Number of sleeping animals [3, 7]","rate of sleeping (%) [3, 7]","Number of sleeping animals [3, 8]","rate of sleeping (%) [3, 8]","Number of sleeping animals [3, 9]",also measured
"COc1ccc(C2CC(=O)c3c(OC)c(OC)c(OC)c(OC)c3O2)cc1OC (stereo not drawn) [Example 48, 5,6,7,8,3′,4′-hexamethoxyl-flavanone]",225.6 ± 43.2 /10 min,229.4 ± 53.7 /10 min,308.5 ± 75.2 /10 min,145.1 ± 41.6 /10 min,140.6 ± 40.8 /10 min,317.4 ± 95.6 /10 min,120.3 ± 48.3 /10 min,118.5 ± 42.6 /10 min,302.1 ± 89.0 /10 min,50.55 ± 20.76,3.40 ± 1.25,67.54 ± 21.07,3.19 ± 1.21,87.51 ± 24.93,2.05 ± 1.80,5,50** %,6,60** %,8,"rate of sleeping (%) [3, 9]: 80*** %"
"COc1cc(OC)c2c(=O)cc(-c3ccccc3O)oc2c1OC [Example 3, 2′-hydroxyl-5,7,8-trimethoxyl-flavone]",283.4 ± 45.8 /10 min,264.7 ± 46.1 /10 min,305.8 ± 80.9 /10 min,236.2 ± 41.5 /10 min,246.3 ± 49.1 /10 min,298.8 ± 71.0 /10 min,180.5 ± 35.3 /10 min,174.7 ± 40.5 /10 min,286.9 ± 90.4 /10 min,39.65 ± 18.32,4.41 ± 1.43,56.76 ± 24.86,3.90 ± 1.93,59.76 ± 25.75,3.86 ± 1.22,3,30%,4,40* %,6,"rate of sleeping (%) [3, 9]: 60** %"
"COc1ccc(C2CC(=O)c3c(cc(OC)c(OC)c3OC)O2)cc1 (stereo not drawn) [Example 65, 5,6,7,4′-tetra methoxyl-flavanone]",280.5 ± 47.4 /10 min,279.4 ± 43.5 /10 min,291.2 ± 83.6 /10 min,174.3 ± 49.2 /10 min,185.5 ± 56.6 /10 min,289.0 ± 89.4 /10 min,127.5 ± 36.5 /10 min,132.6 ± 44.6 /10 min,280.7 ± 92.3 /10 min,31.48 ± 22.67,5.65 ± 1.83,39.63 ± 20.19,3.93 ± 1.39,57.62 ± 24.57,3.92 ± 1.40,4,40* %,6,60** %,7,"rate of sleeping (%) [3, 9]: 70** %"
"COc1ccc(C2CC(=O)c3c(O)c(OC)c(OC)c(OC)c3O2)cc1 (stereo not drawn) [Example 42, 5-hydroxyl-6,7,8,4′-tetramethoxyl-flavanone]",231.2 ± 47.3 /10 min,233.2 ± 35.1 /10 min,313.5 ± 68.2 /10 min,154.5 ± 43.2 /10 min,145.3 ± 41.3 /10 min,310.3 ± 62.5 /10 min,108.5 ± 48.5 /10 min,104.3 ± 42.5 /10 min,302.6 ± 69.3 /10 min,58.90 ± 15.38,4.42 ± 1.65,69.37 ± 20.24,3.30 ± 1.32,78.53 ± 19.87,2.26 ± 1.28,5,50** %,8,80*** %,9,"rate of sleeping (%) [3, 9]: 90*** %"
"6,7,8,4′-tetramethoxyl-flavone [Example 6]",330.1 ± 51.2 /10 min,314.5 ± 56.7 /10 min,338.1 ± 96.3 /10 min,286.7 ± 61.7 /10 min,279.5 ± 48.2 /10 min,311.5 ± 91.5 /10 min,238.3 ± 36.3 /10 min,249.8 ± 45.8 /10 min,308.2 ± 82.7 /10 min,29.81 ± 21.65,5.51 ± 1.39,47.21 ± 22.93,4.20 ± 1.40,55.33 ± 19.32,3.91 ± 2.16,3,30%,5,50** %,6,"rate of sleeping (%) [3, 9]: 60** %"

# Source: patent publication US9669003B2, “Use of flavone and flavanone derivatives in preparation of sedative and hypnotic drugs” (priority 2012, dated 2017)
